In the supplement of paper PMC11208160:

Experiment: recombinant barcode read abundance after kanamycin selection (control-corrected) (log10(CPM+1)); higher = more efficient recombination; sequences stand for … in AGTGCAGAGAAAATCGGCCAGTTTTCTCTGCCTGCAGTCCGCATGCCGT…AGATTTATGCAGCGGACTGCCTTTCTCCCAAAGTGATAAACCGGACAGTATCATGGACCGGTTTTCCCGGTAATCCGTATTTGCAAGGTTGGTTTCACT; site = the 11-nt target
Outline: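 Reported as log10(CPM+1), each value stands for recombination efficiency. That efficiency is the averaged, control-corrected counts per million of barcodes found at recombinant junctions. Cells from a pooled E. coli library pairing targets with IS621 bridge RNA target-binding loops were plated twice on chloramphenicol/ampicillin LB agar (control) and twice on chloramphenicol/ampicillin/kanamycin with 0.1 mM IPTG.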
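Further: IS621 recombinase and bridge RNA in Escherichia coli cells.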

Row | Sequence | recombinant barcode read abundance (log10)
1 | AGGAACCCTTGGGTTCTAACCTGTTGCTC (site AGGAACCCTTA) | 0.0757
2 | AGGAACTCTTGGGTTCTAACCTGTTGCCT (site AGGAACTCTAG) | 2.52
3 | AGGAACTCTTGGGTTCTAACCTGTTGCCT (site CGGAACTCTAG) | 0.573
4 | AGGAATCCTTGGGTTCTAACCTGTTGCTT (site AGGAATCCTAA) | 0.901
5 | AGGAATCCTTGGGTTCTAACCTGTTGCTT (site AGGAGTCCTCA) | 0.0229
6 | AGGACAACTTGGGTTCTAACCTGTTGCCT (site AGAACAACTAG) | 0.106
7 | AGGACAACTTGGGTTCTAACCTGTTGCCT (site AGCACAACTAG) | 0.155
8 | AGGACAACTTGGGTTCTAACCTGTTGCCT (site AGGACAACTAG) | 0.048
9 | AGGACAACTTGGGTTCTAACCTGTTGCCT (site AGTACAACTAG) | 0.181
10 | AGGAGCCCTTGGGTTCTAACCTGTTGCCT (site AGGAGCCCTAG) | 1.48
11 | AGGAGCCCTTGGGTTCTAACCTGTTGCCT (site AGGAGCCCTTG) | 0.0624
12 | AGGAGTACTTGGGTTCTAACCTGTTGCTT (site AGGAGTACTAA) | 0.761
13 | AGGAGTACTTGGGTTCTAACCTGTTGCTT (site GCATCCTCTTG) | 0.12
14 | AGGCCCACTTGGGTTCTAACCTGTTGCAT (site AGGCCCACTAT) | 2.12
15 | AGGCCCACTTGGGTTCTAACCTGTTGCAT (site GCTGAGTCTTA) | 0.109
16 | AGGCCGGCTTGGGTTCTAACCTGTTGCCG (site AGGCCGCCTCG) | 0.294
17 | AGGCCGGCTTGGGTTCTAACCTGTTGCCG (site AGGCCGGCTCG) | 0.329
18 | AGGCCGTCTTGGGTTCTAACCTGTTGCGG (site AGGCCGTCTCC) | 0.815
19 | AGGCCGTCTTGGGTTCTAACCTGTTGCGG (site CACTACCCTAA) | 0.357
20 | AGGCGCCCTTGGGTTCTAACCTGTTGCAC (site AGGCGCCCTAT) | 0.249
21 | AGGCGCCCTTGGGTTCTAACCTGTTGCAC (site AGGCGCCCTCT) | 0.112
22 | AGGCGCCCTTGGGTTCTAACCTGTTGCAC (site AGGCGCCCTGT) | 1.33

Row | Sequence | recombinant barcode read abundance (log10)
23 | AGGCGCCCTTGGGTTCTAACCTGTTGCAC (site AGGCGCCCTTT) | 0.0439
24 | AGGCGTACTTGGGTTCTAACCTGTTGCCT (site AGACGTACTAG) | 0.0558
25 | AGGCGTACTTGGGTTCTAACCTGTTGCCT (site AGCCGTACTAG) | 0.302
26 | AGGCGTACTTGGGTTCTAACCTGTTGCCT (site AGGCGTACTAG) | 0.465
27 | AGGCGTACTTGGGTTCTAACCTGTTGCCT (site AGTCGTACTAG) | 0.0768
28 | AGGCGTCCTTGGGTTCTAACCTGTTGCCA (site AGGCGTCCTAG) | 0.181
29 | AGGCGTCCTTGGGTTCTAACCTGTTGCCA (site AGGCGTCCTCG) | 0.056
30 | AGGCGTCCTTGGGTTCTAACCTGTTGCCA (site AGGCGTCCTGG) | 0.315
31 | AGGCGTCCTTGGGTTCTAACCTGTTGCCA (site AGGCGTCCTTG) | 0.802
32 | AGGCTCCCTTGGGTTCTAACCTGTTGCCT (site AGACTCCCTAG) | 0.193
33 | AGGCTCCCTTGGGTTCTAACCTGTTGCCT (site AGCCTCCCTAG) | 0.0453
34 | AGGCTCCCTTGGGTTCTAACCTGTTGCCT (site AGGCTCCCTAG) | 0.547
35 | AGGCTCCCTTGGGTTCTAACCTGTTGCCT (site AGTCTCCCTAG) | 0.619
36 | AGGCTGTCTTGGGTTCTAACCTGTTGCCT (site AGGCTGACTAG) | 0.54
37 | AGGCTGTCTTGGGTTCTAACCTGTTGCCT (site AGGCTGCCTAG) | 0.613
38 | AGGCTGTCTTGGGTTCTAACCTGTTGCCT (site AGGCTGGCTAG) | 0.0597
39 | AGGCTGTCTTGGGTTCTAACCTGTTGCCT (site AGGCTGTCTAG) | 1.84
40 | AGGGAAGCTTGGGTTCTAACCTGTTGCCT (site AGGGAAGCTAG) | 0.879
41 | AGGGAAGCTTGGGTTCTAACCTGTTGCCT (site AGGGCAGCTAG) | 0.385
42 | AGGGAAGCTTGGGTTCTAACCTGTTGCCT (site AGGGGAGCTAG) | 0.768
43 | AGGGAAGCTTGGGTTCTAACCTGTTGCCT (site AGGGTAGCTAG) | 0.391
44 | AGGGAATCTTGGGTTCTAACCTGTTGCCT (site AGAGAATCTAG) | 0.759

Row | Sequence | recombinant barcode read abundance (log10)
45 | AGGGAATCTTGGGTTCTAACCTGTTGCCT (site AGCGAATCTAG) | 0.124
46 | AGGGAATCTTGGGTTCTAACCTGTTGCCT (site AGGGAATCTAG) | 1.04
47 | AGGGAATCTTGGGTTCTAACCTGTTGCCT (site AGTGAATCTAG) | 0.182
48 | AGGGATACTTGGGTTCTAACCTGTTGCGT (site AGGGATACTAC) | 3.32
49 | AGGGATACTTGGGTTCTAACCTGTTGCGT (site ATGGATACTAC) | 1.58
50 | AGGGATACTTGGGTTCTAACCTGTTGCTT (site AGGGAGACTAA) | 0.303
51 | AGGGATACTTGGGTTCTAACCTGTTGCTT (site AGGGATACTAA) | 1.42
52 | AGGGCATCTTGGGTTCTAACCTGTTGCCT (site AGGGCATCTAG) | 0.122
53 | AGGGCATCTTGGGTTCTAACCTGTTGCCT (site AGGGCGTCTCG) | 0.245
54 | AGGGTCGCTTGGGTTCTAACCTGTTGCCT (site AGGGTCGCTAG) | 2.5
55 | AGGGTCGCTTGGGTTCTAACCTGTTGCCT (site CACAGTCCTTA) | 0.344
56 | AGGGTGCCTTGGGTTCTAACCTGTTGCTA (site AGGGTGCCTTA) | 2.11
57 | AGGGTGCCTTGGGTTCTAACCTGTTGCTA (site AGGGTGTCTCA) | 0.106
58 | AGGGTTCCTTGGGTTCTAACCTGTTGCTT (site AGGGTTCCTAA) | 2.05
59 | AGGGTTCCTTGGGTTCTAACCTGTTGCTT (site TCATGGGCTCT) | 0.0235
60 | AGGTAGACTTGGGTTCTAACCTGTTGCCA (site AGGAAGACTTG) | 0.0263
61 | AGGTAGACTTGGGTTCTAACCTGTTGCCA (site AGGCAGACTTG) | 0.583
62 | AGGTAGACTTGGGTTCTAACCTGTTGCCA (site AGGGAGACTTG) | 0.179
63 | AGGTAGACTTGGGTTCTAACCTGTTGCCA (site AGGTAGACTTG) | 1.5
64 | AGGTCACCTTGGGTTCTAACCTGTTGCGT (site AGGTCACCTAA) | 0.276
65 | AGGTCACCTTGGGTTCTAACCTGTTGCGT (site AGGTCACCTAC) | 2.82
66 | AGGTCACCTTGGGTTCTAACCTGTTGCGT (site AGGTCACCTAG) | 0.536

Row | Sequence | recombinant barcode read abundance (log10)
67 | AGGTCACCTTGGGTTCTAACCTGTTGCGT (site AGGTCACCTAT) | 1.08
68 | AGGTCACCTTGGGTTCTAACCTGTTGCTT (site AGGTCACCTAA) | 0.941
69 | AGGTCACCTTGGGTTCTAACCTGTTGCTT (site AGGTCACCTAC) | 0.0772
70 | AGGTCACCTTGGGTTCTAACCTGTTGCTT (site AGGTCACCTAG) | 0.914
71 | AGGTCACCTTGGGTTCTAACCTGTTGCTT (site AGGTCACCTAT) | 1.24
72 | AGGTCCTCTTGGGTTCTAACCTGTTGCGT (site AGGTCCTCTAA) | 0.295
73 | AGGTCCTCTTGGGTTCTAACCTGTTGCGT (site AGGTCCTCTAC) | 2.67
74 | AGGTCCTCTTGGGTTCTAACCTGTTGCGT (site AGGTCCTCTAG) | 0.73
75 | AGGTCCTCTTGGGTTCTAACCTGTTGCGT (site AGGTCCTCTAT) | 1.71
76 | AGGTCTGCTTGGGTTCTAACCTGTTGCCT (site AGGTATGCTAG) | 0.321
77 | AGGTCTGCTTGGGTTCTAACCTGTTGCCT (site AGGTCTGCTAG) | 0.58
78 | AGGTCTGCTTGGGTTCTAACCTGTTGCCT (site AGGTGTGCTAG) | 0.12
79 | AGGTCTGCTTGGGTTCTAACCTGTTGCCT (site AGGTTTGCTAG) | 0.0282
80 | AGGTGTGCTTGGGTTCTAACCTGTTGCCT (site AGGTATGCTAG) | 0.289
81 | AGGTGTGCTTGGGTTCTAACCTGTTGCCT (site AGGTCTGCTAG) | 0.123
82 | AGGTGTGCTTGGGTTCTAACCTGTTGCCT (site AGGTGTGCTAG) | 1.19
83 | AGGTGTGCTTGGGTTCTAACCTGTTGCCT (site AGGTTTGCTAG) | 0.502
84 | AGGTTCCCTTGGGTTCTAACCTGTTGCTA (site AGGTTCCCTAA) | 0.0211
85 | AGGTTCCCTTGGGTTCTAACCTGTTGCTA (site AGGTTCCCTCA) | 0.0107
86 | AGGTTCCCTTGGGTTCTAACCTGTTGCTA (site AGGTTCCCTGA) | 0.0194
